Measurements published in US8609674B2, “Potassium channel modulators” (AbbVie Inc., priority 2010, dated 2013).

Columns and labels:
Format in all cases: cell-based
[1] = biological target: T1, human KCNQ2 and KCNQ3 subunits (KCNQ2/3 channels) (Homo sapiens, UniProt O43525+O43526); assay: KCNQ2/3 thallium influx FLIPR assay (BTC-AM dye); conditions: for EC50: HEK293 cells stably expressing human KCNQ2 and KCNQ3, Tl+ influx; for Emax: maximum response relative to 10 μM retigabine (=100%), read-out: KCNQ2/3 Max. %
T1 construct: expressed in transfected cells; host or cells: HEK293
Procedure: The following example describes the assay that may be used to identify compounds that activate KCNQ2/3 channels.
HEK293 cells stably expressing human KCNQ2 and KCNQ3 subunits were seeded in 96-well, black-walled, clear-bottomed, poly-D-lysine coated plates (BD Biosciences, Bedford, Mass.) at a density of 1×10^5 cells per well 24 hours before the assay. On the assay day, BTC-AM dye (Invitrogen, Carlsbad, Calif.) was loaded into the cells by replacing the cell culture medium with 55 μL/well of 3 μg/ml dye in Dulbecco's Phosphate Buffered Saline (DPBS) (Invitrogen). Dye loading was allowed to proceed for 2 hours at room temperature and then cells were washed twice with 50 μL/well of assay buffer (in mM: 10 HEPES pH 7.3, 5 glucose, 140 Na-gluconate, 2.5 K-gluconate, 3.6 Ca-gluconate, 2 MgSO4, 0.1 Ouabain) to remove unloaded dye. Cells were incubated in 50 μL of assay buffer before loading onto a FLIPR system (Molecular Devices, Sunnyvale, Calif.). Various concentrations of compounds to be assayed were added to the cells in 50 μL of assay buffer and incubated for 4 minutes. The fluorescence signal was initiated by adding 100 μL of assay buffer containing 6 mM TlNO3 and 10 mM K2SO4. Fluors were excited using the 488-nm line of an argon laser and emission was filtered using a 540±30 nm bandpass filter. Fluorescent signals were recorded for 3 minutes. Sums of the responses over basal responses were plotted versus concentrations of test compounds to obtain an EC50 value and the points fit with a nonlinear regression curve using GraphPad Prism software (GraphPad Software Inc., San Diego, Calif.). EC50 values were calculated from the resulting sigmoidal dose-response curves. The maximum response for each test compound was determined relative to the response produced by 10 μM retigabine. The maximum response of retigabine at 10 μM was set at 100%.

human KCNQ5 = biological target: T2, human KCNQ5 (Homo sapiens, UniProt Q9NR82); assay: KCNQ5 thallium influx FLIPR TETRA assay; conditions: for EC50: HEK293 cells stably expressing human KCNQ5, Tl+ influx; for Emax: maximum response relative to 10 μM retigabine (=100%), read-out: KCNQ5 Max. %
T2 construct: expressed in transfected cells; host or cells: HEK293
Procedure: (§1) The following example describes the assay that may be used to identify compounds that activate KCNQ4 or KCNQ5 channels.
(§2) The assays were performed using a FLIPR^TETRA (Molecular Devices, Sunnyvale, Calif.) in 384-well format. HEK293 cells stably expressing human KCNQ4 or KCNQ5 were seeded in 384-well, black-walled, clear-bottomed, poly-D-lysine coated plates (Greiner Bio-One, Germany) at a density of 1.5×10^4 cells per well, 24 hours before the assay. On the assay day, BTC-AM dye was loaded into the cells by replacing the cell culture medium with 30 μL/well of 2.8 μM dye in DPBS. Dye loading was allowed to proceed for 2 hours at room temperature and then cells were washed once in 30 μL/well of assay buffer (in mM: 10 HEPES pH 7.3, 5 glucose, 140 Na-gluconate, 2.5 K-gluconate, 3.6 Ca-gluconate, 2 MgSO4, 0.1 Ouabain) to remove unloaded dye. Cells were incubated in 30 μL of assay buffer before loading onto a FLIPR^TETRA system. Compounds to be assayed were added to the cells as 4× of final concentration in 15 μL of assay buffer and incubated for 4 minutes at room temperature. The influx signal was initiated by adding 15 μL of assay buffer containing 4.2 mM TlNO3 and 7 mM K2SO4. Tl^+ influx signals were recorded for 3 minutes. Tl^+ influx signal was quantified as light unit changes after Tl^+ addition using the “SUM” statistic from the FLIPR^TETRA software. Sums of the responses over basal responses were plotted versus concentrations of test compounds to obtain an EC50 value and the points fit with a nonlinear regression curve using GraphPad Prism software (GraphPad Software Inc., San Diego, Calif.). EC50 values were calculated from the resulting sigmoidal dose-response curves. The maximum response for each test compound was determined relative to the response produced by 10 μM retigabine. The maximum response of retigabine at 10 μM was set at 100%.

human KCNQ4 = biological target: T3, human KCNQ4 (Homo sapiens, UniProt P56696); assay: KCNQ4 thallium influx FLIPR TETRA assay; conditions: for EC50: HEK293 cells stably expressing human KCNQ4, Tl+ influx; for Emax: maximum response relative to 10 μM retigabine (=100%), read-out: KCNQ4 Max. %
T3 construct: expressed in transfected cells; host or cells: HEK293
Procedure: as §1, §2

| Structure (SMILES) | EC50 [1] [nM] | Emax [1] [%] | EC50 (human KCNQ5) [µM] | Emax (human KCNQ5) [%] | EC50 (human KCNQ4) [µM] | Emax (human KCNQ4) [%] |
| --- | --- | --- | --- | --- | --- | --- |
| CC1(C)[C@H]2CC[C@@H](CC(=O)Nn3c(C4CC4)nc4cc(F)ccc4c3=O)[C@@H]1C2 [Example 3, N-(2-cyclopropyl-7-fluoro-4-oxoquinazolin-3(4H)-yl)-2-[(1S,2S,5S)-6,6-dimethylbicyclo[3.1.1]hept-2-yl]acetamide] | < 100 | 99 | > 30 | 36 | > 30 | -2 |
| CC(C)c1nc2ccc(F)cc2c(=O)n1NC(=O)C[C@@H]1CC[C@H]2C[C@@H]1C2(C)C [Example 13, 2-[(1S,2S,5S)-6,6-dimethylbicyclo[3.1.1]hept-2-yl]-N-[6-fluoro-4-oxo-2-(propan-2-yl)quinazolin-3(4H)-yl]acetamide] | < 100 | 73 | > 30 | 21 | > 30 | 8 |
| CC1(C)[C@H]2CC[C@@H](CC(=O)Nn3c(C(F)(F)F)nc4ccccc4c3=O)[C@@H]1C2 [Example 7, 2-[(1S,2S,5S)-6,6-dimethylbicyclo[3.1.1]hept-2-yl]-N-[4-oxo-2-(trifluoromethyl)quinazolin-3(4H)-yl]acetamide] | 100 to 500 | 58 | > 30 | 52 | > 30 | 6 |
| CC(C)c1nc2ccc(Cl)cc2c(=O)n1NC(=O)C[C@@H]1CC[C@H]2C[C@@H]1C2(C)C [Example 18, N-[6-chloro-4-oxo-2-(propan-2-yl)quinazolin-3(4H)-yl]-2-[(1S,2S,5S)-6,6-dimethylbicyclo[3.1.1]hept-2-yl]acetamide] | > 30000 | 8 | > 30 | 19 | > 30 | 4 |
| CCN(CC)c1nc2ccccc2c(=O)n1NC(=O)C[C@@H]1CC[C@H]2C[C@@H]1C2(C)C [Example 19, N-[2-(diethylamino)-4-oxoquinazolin-3(4H)-yl]-2-[(1S,2S,5S)-6,6-dimethylbicyclo[3.1.1]hept-2-yl]acetamide] | 100 to 500 | 28 | > 30 | 5 | > 30 | 8 |
| CC(C)c1nc2ccccc2c(=O)n1NC(=O)COCC[C@@H]1CC[C@H]2C[C@@H]1C2(C)C [Example 10, 2-{2-[(1S,2S,5S)-6,6-dimethylbicyclo[3.1.1]hept-2-yl]ethoxy}-N-[4-oxo-2-(propan-2-yl)quinazolin-3(4H)-yl]acetamide] | 1000 to 10000 | 121 | > 30 | 335 | > 30 | 122 |
| CC1(C)[C@H]2CC[C@@H](CC(=O)Nn3cnc4ccccc4c3=O)[C@@H]1C2 [Example 16, 2-[(1S,2S,5S)-6,6-dimethylbicyclo[3.1.1]hept-2-yl]-N-(4-oxoquinazolin-3(4H)-yl)acetamide] | 1000 to 10000 | 144 | > 30 | 13 | > 30 | 6 |
| CC1(C)[C@H]2CC[C@@H](CC(=O)Nn3c(CC(F)(F)F)nc4ccccc4c3=O)[C@@H]1C2 [Example 14, 2-[(1S,2S,5S)-6,6-dimethylbicyclo[3.1.1]hept-2-yl]-N-[4-oxo-2-(2,2,2-trifluoroethyl)quinazolin-3(4H)-yl]acetamide] | < 100 | 105 | > 30 | -10 | > 30 | 27 |
| CC(C)c1nc2ccccc2c(=O)n1NC(=O)CCSC[C@@H]1CC[C@H]2C[C@@H]1C2(C)C [Example 11, 3-({[(1S,2R,5S)-6,6-dimethylbicyclo[3.1.1]hept-2-yl]methyl}sulfanyl)-N-[4-oxo-2-(propan-2-yl)quinazolin-3(4H)-yl]propanamide] | 100 to 500 | 123 | > 30 | 714 | 1 to 10 | 293 |
| CCc1nc2sccc2c(=O)n1NC(=O)C[C@@H]1CC[C@H]2C[C@@H]1C2(C)C [Example 6, 2-[(1S,2S,5S)-6,6-dimethylbicyclo[3.1.1]hept-2-yl]-N-(2-ethyl-4-oxothieno[2,3-d]pyrimidin-3(4H)-yl)acetamide] | 1000 to 10000 | 99 | > 30 | 9 | > 30 | 5 |

The remaining lines, values ahead:

| EC50 [1] [nM] | Emax [1] [%] | EC50 (human KCNQ5) [µM] | Emax (human KCNQ5) [%] | EC50 (human KCNQ4) [µM] | Emax (human KCNQ4) [%] | Structure (SMILES) |
| --- | --- | --- | --- | --- | --- | --- |
| < 100 | 179 | 1 to 10 | 857 | 1 to 10 | 255 | CC(C)c1nc2ccccc2c(=O)n1NC(=O)CC1CC2CC1C2 (racemic) [Example 22, (±)-2-(bicyclo[2.1.1]hex-2-yl)-N-[4-oxo-2-(propan-2-yl)quinazolin-3(4H)-yl]acetamide] |
| 500 to 1000 | 121 | > 30 | 14 | 0.5 to 1 | 25 | CC(C)c1nc2ccccc2c(=O)n1NC(=O)C[C@H]1CC[C@H]2C[C@@H]1C2(C)C [Example 21, 2-[(1S,2R,5S)-6,6-dimethylbicyclo[3.1.1]hept-2-yl]-N-[4-oxo-2-(propan-2-yl)quinazolin-3(4H)-yl]acetamide] |
| 100 to 500 | 93 | > 30 | 15 | > 30 | -23 | CC(C)c1nc2ccccc2c(=O)n1NC(=O)C[C@@H]1C[C@@H]2C[C@H](C1)C2(C)C [Example 25, 2-[(1R,3s,5S)-6,6-dimethylbicyclo[3.1.1]hept-3-yl]-N-[4-oxo-2-(propan-2-yl)quinazolin-3(4H)-yl]acetamide] |
| 100 to 500 | 155 | 0.1 to 0.5 | 633 | 0.1 to 0.5 | 229 | CC(C)c1nc2ccccc2c(=O)n1NC(=O)C[C@H]1C[C@H]2C[C@@H](C1F)C2(C)C (stereo partly drawn) [Example 23, 2-[(1R,3R,5S)-2-fluoro-6,6-dimethylbicyclo[3.1.1]hept-3-yl]-N-[4-oxo-2-(propan-2-yl)quinazolin-3(4H)-yl]acetamide] |
| 1000 to 10000 | 97 | > 30 | 14 | > 30 | 3 | Cc1nc2ccccc2c(=O)n1NC(=O)C[C@@H]1CC[C@H]2C[C@@H]1C2(C)C [Example 17, 2-[(1S,2S,5S)-6,6-dimethylbicyclo[3.1.1]hept-2-yl]-N-(2-methyl-4-oxoquinazolin-3(4H)-yl)acetamide] |
| 100 to 500 | 149 | > 30 | 136 | > 30 | 41 | CC(C)c1nc2ccccc2c(=O)n1NC(=O)CSC[C@@H]1CC[C@H]2C[C@@H]1C2(C)C [Example 12, 2-({[(1S,2R,5S)-6,6-dimethylbicyclo[3.1.1]hept-2-yl]methyl}sulfanyl)-N-[4-oxo-2-(propan-2-yl)quinazolin-3(4H)-yl]acetamide] |
| < 100 | 25 | > 30 | 88 | > 30 | -43 | CC(C)c1nc2ccccc2c(=O)n1NC(=O)C[C@@H]1[C@H](F)C[C@H]2C[C@@H]1C2(C)C [Example 24, 2-[(1S,2S,3R,5R)-3-fluoro-6,6-dimethylbicyclo[3.1.1]hept-2-yl]-N-[4-oxo-2-(propan-2-yl)quinazolin-3(4H)-yl]acetamide] |
